Results from ChEMBL document CHEMBL3044921, “Synthesis, characterization, and SAR studies of new (1H-indol-3-yl)alkyl-3-(1H-indol-3-yl)propanamide derivatives as possible antimicrobial and antitubercular agents” (2013).
Converted amounts (≈) assume the structure as drawn.

Tested on: Talaromyces marneffei
Experiment: Antifungal activity against Talaromyces marneffei assessed as growth inhibition at […] to […] ug/ml after 3 to 4 days by agar well diffusion method
Assay type: functional
Conditions: not given

Row | SMILES | diameter of the inhibition zone (DIZ)
1 | O=C(CCc1c[nH]c2ccc(Cl)cc12)NCc1c[nH]c2ccc(OC(F)(F)F)cc12 | 16 mm
2 | Cc1[nH]c2ccc(OC(F)(F)F)cc2c1CNC(=O)CCc1c[nH]c2ccc(Cl)cc12 | 16 mm

Tested on: Aspergillus fumigatus
Experiment: Antifungal activity against Aspergillus fumigatus NCIM 902 assessed as growth inhibition at […] to […] ug/ml after 3 to 4 days by agar well diffusion method
Assay type: functional
Conditions: not given

Row | SMILES | diameter of the inhibition zone (DIZ)
3 | O=C(CCc1c[nH]c2ccc(Cl)cc12)NCc1c[nH]c2ccc(OC(F)(F)F)cc12 | 16 mm
4 | Cc1[nH]c2ccc(OC(F)(F)F)cc2c1CNC(=O)CCc1c[nH]c2ccc(Cl)cc12 | <10 mm

Tested on: Aspergillus flavus
Experiment: Antifungal activity against Aspergillus flavus NCIM 524 assessed as growth inhibition at […] to […] ug/ml after 3 to 4 days by agar well diffusion method
Assay type: functional
Conditions: not given

Row | SMILES | diameter of the inhibition zone (DIZ)
5 | O=C(CCc1c[nH]c2ccc(Cl)cc12)NCc1c[nH]c2ccc(OC(F)(F)F)cc12 | 16 mm
6 | Cc1[nH]c2ccc(OC(F)(F)F)cc2c1CNC(=O)CCc1c[nH]c2ccc(Cl)cc12 | 16 mm

Tested on: Candida albicans
Experiment: Antifungal activity against Candida albicans assessed as growth inhibition after 3 to 4 days by serial plate dilution method
Assay type: functional
Conditions: not given

Row | SMILES | MIC
7 | O=C(CCc1c[nH]c2ccc(Cl)cc12)NCc1c[nH]c2ccc(OC(F)(F)F)cc12 | 6.25 µg/mL (≈ 14.3 µM)
8 | Cc1[nH]c2ccc(OC(F)(F)F)cc2c1CNC(=O)CCc1c[nH]c2ccc(Cl)cc12 | 25 µg/mL (≈ 55.6 µM)

Tested on: Trichophyton mentagrophytes
Experiment: Antifungal activity against Trichophyton mentagrophytes assessed as growth inhibition after 3 to 4 days by serial plate dilution method
Assay type: functional
Conditions: not given

Row | SMILES | MIC
9 | O=C(CCc1c[nH]c2ccc(Cl)cc12)NCc1c[nH]c2ccc(OC(F)(F)F)cc12 | 6.25 µg/mL (≈ 14.3 µM)
10 | Cc1[nH]c2ccc(OC(F)(F)F)cc2c1CNC(=O)CCc1c[nH]c2ccc(Cl)cc12 | 25 µg/mL (≈ 55.6 µM)

Tested on: Talaromyces marneffei
Experiment: Antifungal activity against Talaromyces marneffei assessed as growth inhibition after 3 to 4 days by serial plate dilution method
Assay type: functional
Conditions: not given

Row | SMILES | MIC
11 | O=C(CCc1c[nH]c2ccc(Cl)cc12)NCc1c[nH]c2ccc(OC(F)(F)F)cc12 | 6.25 µg/mL (≈ 14.3 µM)
12 | Cc1[nH]c2ccc(OC(F)(F)F)cc2c1CNC(=O)CCc1c[nH]c2ccc(Cl)cc12 | 6.25 µg/mL (≈ 13.9 µM)

Tested on: Aspergillus fumigatus
Experiment: Antifungal activity against Aspergillus fumigatus NCIM 902 assessed as growth inhibition after 3 to 4 days by serial plate dilution method
Assay type: functional
Conditions: not given

Row | SMILES | MIC
13 | O=C(CCc1c[nH]c2ccc(Cl)cc12)NCc1c[nH]c2ccc(OC(F)(F)F)cc12 | 6.25 µg/mL (≈ 14.3 µM)
14 | Cc1[nH]c2ccc(OC(F)(F)F)cc2c1CNC(=O)CCc1c[nH]c2ccc(Cl)cc12 | 25 µg/mL (≈ 55.6 µM)

Tested on: Aspergillus flavus
Experiment: Antifungal activity against Aspergillus flavus NCIM 524 assessed as growth inhibition after 3 to 4 days by serial plate dilution method
Assay type: functional
Conditions: not given

Row | SMILES | MIC
15 | O=C(CCc1c[nH]c2ccc(Cl)cc12)NCc1c[nH]c2ccc(OC(F)(F)F)cc12 | 6.25 µg/mL (≈ 14.3 µM)
16 | Cc1[nH]c2ccc(OC(F)(F)F)cc2c1CNC(=O)CCc1c[nH]c2ccc(Cl)cc12 | 6.25 µg/mL (≈ 13.9 µM)

Tested on: Streptococcus pyogenes
Assay type: functional
Conditions: not given

Row | SMILES | diameter of the inhibition zone (DIZ)
17 | O=C(CCc1c[nH]c2ccc(Cl)cc12)NCc1c[nH]c2ccc(OC(F)(F)F)cc12 | 11 mm
18 | Cc1[nH]c2ccc(OC(F)(F)F)cc2c1CNC(=O)CCc1c[nH]c2ccc(Cl)cc12 | 16 mm

Tested on: Klebsiella pneumoniae
Assay type: functional
Conditions: not given

Row | SMILES | diameter of the inhibition zone (DIZ)
19 | O=C(CCc1c[nH]c2ccc(Cl)cc12)NCc1c[nH]c2ccc(OC(F)(F)F)cc12 | 16 mm
20 | Cc1[nH]c2ccc(OC(F)(F)F)cc2c1CNC(=O)CCc1c[nH]c2ccc(Cl)cc12 | <10 mm

Tested on: Pseudomonas aeruginosa
Assay type: functional, ATCC 27853
Conditions: not given

Row | SMILES | diameter of the inhibition zone (DIZ)
21 | O=C(CCc1c[nH]c2ccc(Cl)cc12)NCc1c[nH]c2ccc(OC(F)(F)F)cc12 | 16 mm
22 | Cc1[nH]c2ccc(OC(F)(F)F)cc2c1CNC(=O)CCc1c[nH]c2ccc(Cl)cc12 | 16 mm

Tested on: Staphylococcus aureus
Assay type: functional, ATCC 25923
Conditions: not given

Row | SMILES | diameter of the inhibition zone (DIZ)
23 | O=C(CCc1c[nH]c2ccc(Cl)cc12)NCc1c[nH]c2ccc(OC(F)(F)F)cc12 | 16 mm
24 | Cc1[nH]c2ccc(OC(F)(F)F)cc2c1CNC(=O)CCc1c[nH]c2ccc(Cl)cc12 | 16 mm

Tested on: Streptococcus pyogenes
Experiment: Antibacterial activity against Streptococcus pyogenes assessed as growth inhibition after 16 to 18 hr by serial plate dilution method
Assay type: functional
Conditions: not given

Row | SMILES | MIC
25 | O=C(CCc1c[nH]c2ccc(Cl)cc12)NCc1c[nH]c2ccc(OC(F)(F)F)cc12 | 12.5 µg/mL (≈ 28.7 µM)
26 | Cc1[nH]c2ccc(OC(F)(F)F)cc2c1CNC(=O)CCc1c[nH]c2ccc(Cl)cc12 | 6.25 µg/mL (≈ 13.9 µM)

Tested on: Mycolicibacterium fortuitum
Experiment: Antitubercular activity against Mycobacterium fortuitum ATCC 19542 assessed as growth inhibition at 0.3125 to 5 ug/mL after 7 days by resazurin reduction test
Assay type: functional
Conditions: ATCC 19542, 168 h

Row | SMILES | MIC
27 | O=C(CCc1c[nH]c2ccc(Cl)cc12)NCc1c[nH]c2ccc(OC(F)(F)F)cc12 | 1.25 µg/mL (≈ 2.87 µM)
28 | Cc1[nH]c2ccc(OC(F)(F)F)cc2c1CNC(=O)CCc1c[nH]c2ccc(Cl)cc12 | 10 µg/mL (≈ 22.2 µM)

Tested on: Mycolicibacterium smegmatis
Experiment: Antitubercular activity against Mycobacterium smegmatis ATCC 19420 assessed as growth inhibition at 0.3125 to 5 ug/mL after 7 days by resazurin reduction test
Assay type: functional
Conditions: ATCC 19420, 168 h

Row | SMILES | MIC
29 | O=C(CCc1c[nH]c2ccc(Cl)cc12)NCc1c[nH]c2ccc(OC(F)(F)F)cc12 | 1.25 µg/mL (≈ 2.87 µM)
30 | Cc1[nH]c2ccc(OC(F)(F)F)cc2c1CNC(=O)CCc1c[nH]c2ccc(Cl)cc12 | 10 µg/mL (≈ 22.2 µM)

Tested on: Mycobacterium tuberculosis
Experiment: Antitubercular activity against Mycobacterium tuberculosis H37Rv ATCC 27294 assessed as growth inhibition at 0.3125 to 5 ug/mL after 7 days by resazurin reduction test
Assay type: functional
Conditions: H37Rv ATCC 27294, 168 h

Row | SMILES | MIC
31 | O=C(CCc1c[nH]c2ccc(Cl)cc12)NCc1c[nH]c2ccc(OC(F)(F)F)cc12 | 1.25 µg/mL (≈ 2.87 µM)
32 | Cc1[nH]c2ccc(OC(F)(F)F)cc2c1CNC(=O)CCc1c[nH]c2ccc(Cl)cc12 | 0.625 µg/mL (≈ 1.39 µM)

Tested on: Mycolicibacterium smegmatis
Experiment: Antitubercular activity against Mycobacterium smegmatis ATCC 19420 assessed as growth inhibition at 1 to 100 ug/mL after 7 days by resazurin reduction test
Assay type: functional
Conditions: ATCC 19420, 168 h

Row | SMILES | MIC
33 | O=C(CCc1c[nH]c2ccc(Cl)cc12)NCc1c[nH]c2ccc(OC(F)(F)F)cc12 | 1 µg/mL (≈ 2.29 µM)
34 | Cc1[nH]c2ccc(OC(F)(F)F)cc2c1CNC(=O)CCc1c[nH]c2ccc(Cl)cc12 | 10 µg/mL (≈ 22.2 µM)

Tested on: Mycolicibacterium fortuitum
Experiment: Antitubercular activity against Mycobacterium fortuitum ATCC 19542 assessed as growth inhibition at 1 to 100 ug/mL after 7 days by resazurin reduction test
Assay type: functional
Conditions: ATCC 19542, 168 h

Row | SMILES | MIC
35 | O=C(CCc1c[nH]c2ccc(Cl)cc12)NCc1c[nH]c2ccc(OC(F)(F)F)cc12 | 10 µg/mL (≈ 22.9 µM)
36 | Cc1[nH]c2ccc(OC(F)(F)F)cc2c1CNC(=O)CCc1c[nH]c2ccc(Cl)cc12 | 10 µg/mL (≈ 22.2 µM)

Tested on: Mycobacterium tuberculosis
Experiment: Antitubercular activity against Mycobacterium tuberculosis H37Rv ATCC 27294 assessed as growth inhibition at 1 to 100 ug/mL after 7 days by resazurin reduction test
Assay type: functional
Conditions: not given

Row | SMILES | growth inhibition (GI)
37 | O=C(CCc1c[nH]c2ccc(Cl)cc12)NCc1c[nH]c2ccc(OC(F)(F)F)cc12 | 90%
38 | Cc1[nH]c2ccc(OC(F)(F)F)cc2c1CNC(=O)CCc1c[nH]c2ccc(Cl)cc12 | 95%

Same assay, conditions: Mycobacterium tuberculosis, H37Rv ATCC 27294, 168 h

Row | SMILES | MIC
39 | O=C(CCc1c[nH]c2ccc(Cl)cc12)NCc1c[nH]c2ccc(OC(F)(F)F)cc12 | 1 µg/mL (≈ 2.29 µM)
40 | Cc1[nH]c2ccc(OC(F)(F)F)cc2c1CNC(=O)CCc1c[nH]c2ccc(Cl)cc12 | 1 µg/mL (≈ 2.22 µM)

Tested on: Candida albicans
Experiment: Antifungal activity against Candida albicans assessed as growth inhibition at […] to […] ug/ml after 3 to 4 days by agar well diffusion method
Assay type: functional
Conditions: not given

Row | SMILES | diameter of the inhibition zone (DIZ)
41 | O=C(CCc1c[nH]c2ccc(Cl)cc12)NCc1c[nH]c2ccc(OC(F)(F)F)cc12 | 16 mm
42 | Cc1[nH]c2ccc(OC(F)(F)F)cc2c1CNC(=O)CCc1c[nH]c2ccc(Cl)cc12 | <10 mm

Tested on: Trichophyton mentagrophytes
Experiment: Antifungal activity against Trichophyton mentagrophytes assessed as growth inhibition at […] to […] ug/ml after 3 to 4 days by agar well diffusion method
Assay type: functional
Conditions: not given

Row | SMILES | diameter of the inhibition zone (DIZ)
43 | O=C(CCc1c[nH]c2ccc(Cl)cc12)NCc1c[nH]c2ccc(OC(F)(F)F)cc12 | 16 mm
44 | Cc1[nH]c2ccc(OC(F)(F)F)cc2c1CNC(=O)CCc1c[nH]c2ccc(Cl)cc12 | <10 mm

Tested on: Klebsiella pneumoniae
Experiment: Antibacterial activity against Klebsiella pneumoniae assessed as growth inhibition after 16 to 18 hr by serial plate dilution method
Assay type: functional
Conditions: not given

Row | SMILES | MIC
45 | O=C(CCc1c[nH]c2ccc(Cl)cc12)NCc1c[nH]c2ccc(OC(F)(F)F)cc12 | 6.25 µg/mL (≈ 14.3 µM)
46 | Cc1[nH]c2ccc(OC(F)(F)F)cc2c1CNC(=O)CCc1c[nH]c2ccc(Cl)cc12 | 25 µg/mL (≈ 55.6 µM)

Tested on: Pseudomonas aeruginosa
Experiment: Antibacterial activity against Pseudomonas aeruginosa ATCC 27853 assessed as growth inhibition after 16 to 18 hr by serial plate dilution method
Assay type: functional
Conditions: not given

Row | SMILES | MIC
47 | O=C(CCc1c[nH]c2ccc(Cl)cc12)NCc1c[nH]c2ccc(OC(F)(F)F)cc12 | 6.25 µg/mL (≈ 14.3 µM)
48 | Cc1[nH]c2ccc(OC(F)(F)F)cc2c1CNC(=O)CCc1c[nH]c2ccc(Cl)cc12 | 6.25 µg/mL (≈ 13.9 µM)

Tested on: Escherichia coli
Experiment: Antibacterial activity against Escherichia coli […] assessed as growth inhibition after 16 to 18 hr by serial plate dilution method
Assay type: functional
Conditions: not given

Row | SMILES | MIC
49 | O=C(CCc1c[nH]c2ccc(Cl)cc12)NCc1c[nH]c2ccc(OC(F)(F)F)cc12 | 6.25 µg/mL (≈ 14.3 µM)
50 | Cc1[nH]c2ccc(OC(F)(F)F)cc2c1CNC(=O)CCc1c[nH]c2ccc(Cl)cc12 | 12.5 µg/mL (≈ 27.8 µM)

Tested on: Staphylococcus aureus
Experiment: Antibacterial activity against Staphylococcus aureus ATCC 25923 assessed as growth inhibition after 16 to 18 hr by serial plate dilution method
Assay type: functional
Conditions: not given

Row | SMILES | MIC
51 | O=C(CCc1c[nH]c2ccc(Cl)cc12)NCc1c[nH]c2ccc(OC(F)(F)F)cc12 | 6.25 µg/mL (≈ 14.3 µM)
52 | Cc1[nH]c2ccc(OC(F)(F)F)cc2c1CNC(=O)CCc1c[nH]c2ccc(Cl)cc12 | 6.25 µg/mL (≈ 13.9 µM)

Tested on: Escherichia coli
Assay type: functional, ATCC 24922
Conditions: not given

Row | SMILES | diameter of the inhibition zone (DIZ)
53 | O=C(CCc1c[nH]c2ccc(Cl)cc12)NCc1c[nH]c2ccc(OC(F)(F)F)cc12 | 16 mm
54 | Cc1[nH]c2ccc(OC(F)(F)F)cc2c1CNC(=O)CCc1c[nH]c2ccc(Cl)cc12 | 11 mm
